Test results published in US4485110A, “β-Lactam compounds, and use” (priority 1980, dated 1984).
Where two headings read alike, the source gives them in different places.

Key:
Assay in all cases: β-Lactamase inhibitory activity: antibiotic MIC alone or in combination
Type in all cases: cell-based
E. cloacae N1 = conditions: for MIC: Enterobacter cloacae
P. mirabilis 889 = tested on: P. mirabilis 889
Description: (§1) These tables show the MIC values of amoxycillin, cephaloridine, ticarcillin and apalcillin against a number of β-lactamase producing organisms.

C. freundii E8 = conditions: for MIC: Citrobacter freundii
Description: as §1

P. aeruginosa Dalgleish = conditions: Pseudomonas aeruginosa
Description: as §1

P. morganii 1580 = tested on: P. morganii 1580
Description: as §1

E. coli JT410 C+ = conditions: for MIC: Escherichia coli
Description: as §1

S. marcescens US20 = conditions: for MIC: Serratia marcescens
Description: as §1

E. coli JT20R+ = conditions: Escherichia coli
Description: as §1

K. aerogenes Ba95R+ = conditions: Klebsiella aerogenes
Description: as §1

E. coli JT39R+ = conditions: for MIC: Escherichia coli
Description: as §1

C. freundii B10R+ = conditions: Citrobacter freundii
Description: as §1

P. vulgaris WO91 = conditions: for MIC: Proteus vulgaris
Description: as §1

P. aeruginosa A = conditions: Pseudomonas aeruginosa
Description: as §1

S. aureus Russell = conditions: Staphylococcus aureus
Description: as §1

E. coli 0111 = tested on: E. coli 0111
Description: as §1

K. aerogenes I112 = conditions: for MIC: Klebsiella aerogenes
Description: as §1

S. aureus MB9 = conditions: Staphylococcus aureus
Description: as §1

P. rettgeri WM16 = conditions: for MIC: Providencia rettgeri
Description: as §1

P. mirabilis 977 = tested on: P. mirabilis 977
Description: as §1

K. aerogenes A = conditions: Klebsiella aerogenes
Description: as §1

[1] = apalcillin alone, read-out: Apalcillin MIC
[2] = cephaloridine alone, read-out: Cephaloridine MIC
[3] = ticarcillin alone, read-out: Ticarcillin MIC

In the case of `CC1(C)S[C@@H]2[C@H](NC(=O)[C@H](NC(=O)c3cnc4cccnc4c3O)c3ccccc3)C(=O)N2[C@H]1C(=O)O` [Apalcillin], the MIC (E. cloacae N1; N1, apalcillin alone, read-out: Apalcillin MIC) is reported as 5 µg/mL, the MIC (P. mirabilis 889; Proteus mirabilis, 889, apalcillin alone, read-out: Apalcillin MIC) is reported as > 1000 µg/mL and the MIC (C. freundii E8; E8, apalcillin alone, read-out: Apalcillin MIC) is reported as 2.5 µg/mL. For the same molecule, the MIC (P. aeruginosa Dalgleish; [1]) was > 1000 µg/mL, the MIC (P. morganii 1580; Morganella morganii, 1580, apalcillin alone, read-out: Apalcillin MIC) was 1000 µg/mL and the MIC (E. coli JT410 C+; [1]) was 25 µg/mL. The MIC (S. marcescens US20; US20, apalcillin alone, read-out: Apalcillin MIC) was 5 µg/mL, the MIC (E. coli JT20R+; read-out: Apalcillin MIC) was > 1000 µg/mL and the MIC (K. aerogenes Ba95R+; read-out: Apalcillin MIC) was > 1000 µg/mL. The MIC (E. coli JT39R+; read-out: Apalcillin MIC, apalcillin alone) was 1000 µg/mL, the MIC (C. freundii B10R+; read-out: Apalcillin MIC) was > 1000 µg/mL and the MIC (P. vulgaris WO91; WO91, apalcillin alone, read-out: Apalcillin MIC) was 10 µg/mL. The MIC (P. aeruginosa A; [1]) was 2.5 µg/mL, the MIC (S. aureus Russell; [1]) was 250 µg/mL and the MIC (E. coli 0111; Escherichia coli, 0111, apalcillin alone, read-out: Apalcillin MIC) was 2.5 µg/mL. The MIC (K. aerogenes I112; I112, read-out: Apalcillin MIC, apalcillin alone) was 25 µg/mL, the MIC (S. aureus MB9; MB9, apalcillin alone, read-out: Apalcillin MIC) was 50 µg/mL and the MIC (P. rettgeri WM16; WM16, apalcillin alone, read-out: Apalcillin MIC) was 10 µg/mL. The MIC (P. mirabilis 977; Proteus mirabilis, 977, apalcillin alone, read-out: Apalcillin MIC) was 2.5 µg/mL and the MIC (K. aerogenes A; [1]) was 10 µg/mL.
`O=C(Cc1cccs1)N[C@@H]1C(=O)N2C(C(=O)[O-])=C(C[n+]3ccccc3)CS[C@H]12` [Cephaloridine] was tested, and the MIC (E. cloacae N1; N1, cephaloridine alone, read-out: Cephaloridine MIC) was 500 µg/mL, the “Cephaloridine MIC” value (E. cloacae N1; cephaloridine alone) was 1000 µg/mL and the MIC (C. freundii E8; E8, cephaloridine alone, read-out: Cephaloridine MIC) was 500 µg/mL. The MIC (P. aeruginosa Dalgleish; [2]) was > 1000 µg/mL, the MIC (P. morganii 1580; Morganella morganii, 1580, cephaloridine alone, read-out: Cephaloridine MIC) was 1000 µg/mL and the “Cephaloridine MIC” value (P. morganii 1580; cephaloridine alone) was > 1000 µg/mL. For the same molecule, the MIC (E. coli JT410 C+; [2]) was 50 µg/mL, the “Cephaloridine MIC” value (E. coli JT410 C+; cephaloridine alone) was 100 µg/mL and the MIC (S. marcescens US20; US20, cephaloridine alone, read-out: Cephaloridine MIC) was 1000 µg/mL. For the same molecule, the “Cephaloridine MIC” value (S. marcescens US20; cephaloridine alone) was > 1000 µg/mL, the MIC (E. coli JT20R+; read-out: Cephaloridine MIC) was 25 µg/mL and the MIC (K. aerogenes Ba95R+; read-out: Cephaloridine MIC) was 100 µg/mL. For the same molecule, the MIC (E. coli JT39R+; read-out: Cephaloridine MIC, cephaloridine alone) was 5 µg/mL, the “Cephaloridine MIC” value (E. coli JT39R+; cephaloridine alone) was 10 µg/mL and the MIC (C. freundii B10R+; read-out: Cephaloridine MIC) was > 1000 µg/mL. The MIC (P. vulgaris WO91; WO91, cephaloridine alone, read-out: Cephaloridine MIC) was 1000 µg/mL, the “Cephaloridine MIC” value (P. vulgaris WO91; cephaloridine alone) was > 1000 µg/mL and the MIC (P. aeruginosa A; [2]) was > 1000 µg/mL. For the same molecule, the MIC (E. coli 0111; Escherichia coli, 0111, cephaloridine alone, read-out: Cephaloridine MIC) was 2.5 µg/mL, the “Cephaloridine MIC” value (E. coli 0111; cephaloridine alone) was 5.0 µg/mL and the MIC (K. aerogenes I112; I112, read-out: Cephaloridine MIC, cephaloridine alone) was 5 µg/mL. The MIC (S. aureus MB9; MB9, cephaloridine alone, read-out: Cephaloridine MIC) was < 0.2 µg/mL, the MIC (P. rettgeri WM16; WM16, cephaloridine alone, read-out: Cephaloridine MIC) was 1000 µg/mL and the “Cephaloridine MIC” value (P. rettgeri WM16; cephaloridine alone) was > 1000 µg/mL. For the same molecule, the MIC (P. mirabilis 977; Proteus mirabilis, 977, cephaloridine alone, read-out: Cephaloridine MIC) was 10 µg/mL, the “Cephaloridine MIC” value (P. mirabilis 977; cephaloridine alone) was 5.0 µg/mL and the MIC (K. aerogenes A; [2]) was 2.5 µg/mL.
For `CC1(C)S[C@@H]2[C@H](NC(=O)[C@H](C(=O)O)c3ccsc3)C(=O)N2[C@H]1C(=O)O` [Ticarcillin], the MIC (E. cloacae N1; N1, ticarcillin alone, read-out: Ticarcillin MIC) was 2.5 µg/mL, the MIC (P. mirabilis 889; Proteus mirabilis, 889, ticarcillin alone, read-out: Ticarcillin MIC) was > 1000 µg/mL and the MIC (C. freundii E8; E8, ticarcillin alone, read-out: Ticarcillin MIC) was 2.5 µg/mL. The “Ticarcillin MIC” value (C. freundii E8; ticarcillin alone) was 5.0 µg/mL, the MIC (P. aeruginosa Dalgleish; [3]) was > 1000 µg/mL and the MIC (S. marcescens US20; US20, ticarcillin alone, read-out: Ticarcillin MIC) was 5 µg/mL. The MIC (E. coli JT20R+; read-out: Ticarcillin MIC) was > 1000 µg/mL, the MIC (K. aerogenes Ba95R+; read-out: Ticarcillin MIC) was > 1000 µg/mL and the MIC (E. coli JT39R+; read-out: Ticarcillin MIC, ticarcillin alone) was > 1000 µg/mL. The MIC (C. freundii B10R+; read-out: Ticarcillin MIC) was > 1000 µg/mL, the MIC (P. aeruginosa A; [3]) was 25 µg/mL and the MIC (S. aureus Russell; [3]) was 25 µg/mL. For the same molecule, the MIC (E. coli 0111; Escherichia coli, 0111, ticarcillin alone, read-out: Ticarcillin MIC) was 5 µg/mL, the MIC (K. aerogenes I112; I112, read-out: Ticarcillin MIC, ticarcillin alone) was 500 µg/mL and the “Ticarcillin MIC” value (K. aerogenes I112; ticarcillin alone) was 250 µg/mL. It also gave an MIC (S. aureus MB9; MB9, ticarcillin alone, read-out: Ticarcillin MIC) of 10 µg/mL, an MIC (P. mirabilis 977; Proteus mirabilis, 977, ticarcillin alone, read-out: Ticarcillin MIC) of 1 µg/mL and an MIC (K. aerogenes A; [3]) of 100 µg/mL.
